Experimental data: article PMC8583781, “Identification and Functional Analysis of a Pseudo-Cysteine Protease from the Midgut Transcriptome of Sphenophorus levis” (International Journal of Molecular Sciences, 2021)

Target: T1, Sl-CathL-mutSC
T1 construct: ORF of Sl-CathL-CS (GenBank JZ136744.1) without signal peptide, C-terminal 6x His tag, expressed in P. pastoris KM71H
Test: fluorogenic protease assay (AMC release), Ki by Morrison equation
Assay type: biochemical, Sphenophorus levis

Molecule `CC(C)C[C@H](NC(=O)[C@H]1O[C@@H]1C(=O)O)C(=O)NCCCCN=C(N)N` [E-64] has a Ki of 38.5 ± 1.2 µM.
